Data reported in PubChem BioAssay (NCI).
“And” between values parts separate entries of the source, which are not always exact repeats. Identical values can stand only once.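 In this assay, cells in 96-well plates receive the compound at five concentrations for 48 hours. Endpoints are linearly interpolated between the surrounding concentrations. GI50 = concentration required for 50% inhibition of growth. At the TGI there is no net growth.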

Experiments:
Experiment in all cases: DTP human tumour cell line panel, 48 h
[1] = tested on: RXF 393 renal
[2] = tested on: SF-539 CNS
[3] = tested on: CAKI-1 renal
[4] = tested on: UACC-257 melanoma
[5] = tested on: SF-268 CNS
[6] = tested on: ACHN renal
[7] = tested on: SK-OV-3 ovarian
[8] = tested on: LOX IMVI melanoma
[9] = tested on: SNB-19 CNS
[10] = tested on: HS 578T breast

| Structure (SMILES) | GI50 [1] | TGI [1] | GI50 [2] | TGI [2] | GI50 [3] | TGI [3] | GI50 [4] | TGI [4] | GI50 [5] | TGI [5] | GI50 [6] | TGI [6] | GI50 [7] | TGI [7] | GI50 [8] | TGI [8] | GI50 [9] | TGI [9] | GI50 [10] | TGI [10] |
| --- | --- | --- | --- | --- | --- | --- | --- | --- | --- | --- | --- | --- | --- | --- | --- | --- | --- | --- | --- | --- |
| CN(C)CCCNC(=O)c1cc2c3ccccc3[nH]c2c2ncccc12 | 13.2 µM | 39 µM | 10.8 µM | 23.4 µM | 7.83 µM | 56.5 µM | 15 µM | 32.4 µM | 16.7 µM | 64.1 µM | 5.23 µM | 68.2 µM | 20 µM | > 100 µM | 8.34 µM | 23.8 µM | 17.4 µM | 85.3 µM | 14.5 µM | 38.3 µM |
| COc1ccc(/C=C/c2nc(N3CCOCC3)c3cc(F)c(F)cc3n2)cc1OC | 5.06 µM | > 100 µM | > 100 µM | > 100 µM | 3.23 µM | > 100 µM | 4.41 µM | > 100 µM | 9.85 µM | > 100 µM | 4.35 µM | > 100 µM | 11 µM | > 100 µM | 5.07 µM | > 100 µM | 5.2 µM | > 100 µM | 54.8 µM | > 100 µM |
| Cc1cc(-c2ccccc2)c(C)n1Cc1ccc(Cl)cc1 | 2.33 µM | 16.6 µM | 2.8 µM | 12.1 µM | 3.66 µM | > 100 µM | 5.39 µM | 78.6 µM | 13.6 µM | > 100 µM | 4.99 µM | > 100 µM | 5.92 µM | > 100 µM | 6.95 µM | > 100 µM | 36.4 µM | > 100 µM | 4.43 µM | > 100 µM |
| COc1ccc(C(=O)Nc2ncc(Cc3ccc(F)cc3)s2)cc1 | 0.0666 µM | 3.18 µM | 0.0448 µM | 0.414 µM | 0.0446 µM | 30.7 µM | 7.75 µM | > 100 µM | 0.481 µM | > 100 µM | 0.0664 µM | > 95 µM | 0.277 µM | > 100 µM | 0.0673 µM | > 100 µM | 0.0963 µM | > 100 µM | 0.052 µM | 34.6 µM |
| CC(=O)NNC(=O)c1nn(-c2ccc(Cl)cc2)cc1OC(C)=O | 16.9 µM | > 83.2 µM | 21.9 µM | > 100 µM | 9.3 µM | 82.6 µM | 87.8 µM | > 100 µM | 8.85 µM | > 71.3 µM | 15.3 µM | > 66.6 µM | 49.5 µM | > 100 µM | 22.5 µM | > 100 µM | > 70.2 µM | > 100 µM | 40 µM | > 100 µM |
| Cc1cc(C)cc(Nc2nccc(-c3c(-c4ccc(F)cc4)ncn3C3CCNCC3)n2)c1 | 1.39 µM | 2.92 µM | 1.75 µM | 3.25 µM | 1.24 µM | 2.72 µM | 2.09 µM | 4.17 µM | 1.48 µM | 3.96 µM | 0.46 µM | 1.79 µM | 2.13 µM | 5.09 µM | 1.54 µM | 2.88 µM | 1.68 µM | 3.71 µM | 1.96 µM | 4.36 µM |
| CC1=C[C@H]2c3c(c(O)c(O)c4oc5cc(O)cc(O)c5c(=O)c34)[C@H](c3cc(O)c(O)c4oc5cc(O)cc(O)c5c(=O)c34)[C@H]2C(C)(C)C1 | 1.76 µM | 4.3 µM and 4.04 µM | 1.16 µM and 1.69 µM | 3.89 µM and 4.79 µM | 3.45 µM and 2.18 µM | 11.1 µM and 6.53 µM | 3.02 µM and 4.3 µM | 9.78 µM and 21.6 µM | 2.14 µM and 2.09 µM | 11.3 µM and 11.8 µM | 1.73 µM and 1.84 µM | 5.27 µM and 10.2 µM | 2.05 µM and 2.27 µM | 5.13 µM and 8.28 µM | 1.12 µM and 0.87 µM | 2.36 µM and 2.19 µM | 1.33 µM and 1.3 µM | 3.31 µM and 4.93 µM | 2.07 µM and 1.49 µM | 8.9 µM and 7.39 µM |
| COC(=O)C1CC2(c3ccc(C)cc3)C(c3ccc(C)cc3)=C(c3ccc(C)cc3)C1(c1ccc(C)cc1)S2=O (stereo not given) | 90.2 µM | > 100 µM | > 100 µM | > 100 µM | > 100 µM | > 100 µM | > 100 µM | > 100 µM | > 100 µM | > 100 µM | > 100 µM | > 100 µM | > 100 µM | > 100 µM | > 100 µM | > 100 µM | 36.2 µM | > 100 µM | 48.6 µM | > 100 µM |
| Cc1c(N2C(=O)/C(=C\c3ccc(O)cc3)N=C2c2ccccc2)c(=O)n(-c2ccccc2)n1C | > 100 µM | > 100 µM | > 100 µM | > 100 µM | > 100 µM | > 100 µM | > 100 µM | > 100 µM | > 100 µM | > 100 µM | > 100 µM | > 100 µM | > 100 µM | > 100 µM | > 100 µM | > 100 µM | > 100 µM | > 100 µM | > 100 µM | > 100 µM |
